Experimental data: patent publication US20240228510A1, “KRAS G12C INHIBITORS” (Mirati Therapeutics, Inc., priority 2021, published 2024)

Test system: KRas G12C
Assay: Inhibition of KRas G12C-mediated pERK in H358 cells (Phospho-ERK In-Cell Western)
Format: cell-based
Details: Homo sapiens; NCI-H358 cells; 3 hours compound; pERK(Thr202/Tyr204) normalized to GAPDH; 4 parameter fit
Method: The cellular inhibition of KRAs G12C by exemplary compounds of the present invention was determined by measuring the amount of a downstream marker of KRas activity, phosphorylated ERK (“Phospho-ERK”).
NCI-H358 cells (ATCC CRL-5807) express KRas G12C and were grown in RPMI medium supplemented with 10% fetal bovine serum, penicillin/streptomycin and 10 mM HEPES. Cells were plated in poly-D-Lysine coated 96-well plates at a concentration of 50,000 cells/well and allowed to attach for 8-12 hours. Diluted compounds were then added at a final concentration of 0.5% DMSO. After 3 hours, the medium was removed, 150 μL of 4% formaldehyde was added and the plates were incubated for 20 minutes. The plates were washed with PBS, and permeabilized using 150 μL of ice cold 100% methanol for 10 minutes. Non-specific antibody binding to the plates was blocked using 100 μL Licor Blocking Buffer (Li-Cor Biotechnology, Lincoln NE) for 1 hour at room temperature. Positive control samples and samples lacking cells were parallel processed with test samples as standards.
The amount Phospho-ERK was determined using an antibody specific for the phosphorylated form of ERK and compared to the amount of GAPDH. Primary antibodies used for detection were added as follows: Phospho-ERK (Cell Signaling cs9101) diluted 1:500 and GAPDH (Millipore MAB374) diluted 1:5000 in Licor block+0.05% Tween 20. The plates were incubated for 2 hours at room temperature. The plates were washed with PBS+0.05% Tween 20.
Secondary antibodies used to visualize primary antibodies were added as follows: Anti-rabbit-680 diluted 1:1000 and Anti-mouse-800 diluted 1:1000 in Licor Block+0.05% Tween 20 and incubated for 1 hour at room temperature. The plates were washed with PBS+0.05% Tween 20. A 100 μL aliquot of PBS was added to each well and the plates were read on a LICOR AERIUS plate reader.
The pERK(Thr202/Tyr204) signal was normalized with the GAPDH signal and percent of DMSO control values were calculated. IC50 values were generated using a 4 parameter fit of the dose response curve.

`C=CC(=O)N1CC2(C1)CN(c1snc3c(F)c(-c4cccc5ccc(F)c(Cl)c45)ncc13)C2` [Example 20, 1-(6-(6-(8-chloro-7-fluoronaphthalen-1-yl)-7-fluoroisothiazolo[4,3-c]pyridin-3-yl)-2,6-diazaspiro[3.3]heptan-2-yl)prop-2-en-1-one] and `C=CC(=O)N1CC2(CCN(c3snc4c(F)c(-c5cccc6ccc(F)c(Cl)c56)ncc34)CC2)C1` [Example 22, 1-(7-(6-(8-chloro-7-fluoronaphthalen-1-yl)-7-fluoroisothiazolo[4,3-c]pyridin-3-yl)-2,7-diazaspiro[3.5]nonan-2-yl)prop-2-en-1-one] are within 1.5-fold of each other in IC50: 7000 nM for the first, 8000 nM for the second.

Compared with `C=CC(=O)N1CCN(c2c(Cl)cnc3c(F)c(-c4cccc5ccc(F)c(Cl)c45)ncc23)CC1` [Example 7, 1-(4-(3-chloro-7-(8-chloro-7-fluoronaphthalen-1-yl)-8-fluoro-1,6-naphthyridin-4-yl)piperazin-1-yl)prop-2-en-1-one], `C=CC(=O)N1CCN(c2c(F)cnc3c(F)c(-c4cccc5ccc(F)c(Cl)c45)ncc23)CC1` [Example 2, 1-(4-(7-(8-chloro-7-fluoronaphthalen-1-yl)-3,8-difluoro-1,6-naphthyridin-4-yl)piperazin-1-yl)prop-2-en-1-one] is 1.9-fold lower in IC50: 5910 nM for the first, 3050 nM for the second.

`C#Cc1c(F)ccc2cccc(-c3ncc4c(N5C[C@@H]6[C@H]5CCN6C(=O)C=C)cc(C)nc4c3F)c12` [Example 14, 1-((1R,5R)-6-(7-(8-ethynyl-7-fluoronaphthalen-1-yl)-8-fluoro-2-methyl-1,6-naphthyridin-4-yl)-2,6-diazabicyclo[3.2.0]heptan-2-yl)prop-2-en-1-one] and `C#Cc1c(F)ccc2cccc(-c3ncc4c(N5C[C@@H]6[C@H]5CCN6C(=O)C=C)ccnc4c3F)c12` [Example 11, 1-((1R,5R)-6-(7-(8-ethynyl-7-fluoronaphthalen-1-yl)-8-fluoro-1,6-naphthyridin-4-yl)-2,6-diazabicyclo[3.2.0]heptan-2-yl)prop-2-en-1-one] are within 1.5-fold of each other in IC50: 21 nM for the first, 17 nM for the second.

First: C#Cc1c(F)ccc2cccc(-c3ncc4c(N5[C@@H]6CCN(C(=O)C=C)[C@@H]6[C@@H]5C)cc(C)nc4c3F)c12 [Example 16, 1-((1R,5R,7S)-6-(7-(8-ethynyl-7-fluoronaphthalen-1-yl)-8-fluoro-2-methyl-1,6-naphthyridin-4-yl)-7-methyl-2,6-diazabicyclo[3.2.0]heptan-2-yl)prop-2-en-1-one]
Second: C#Cc1c(F)ccc2cccc(-c3ncc4c(N5[C@@H]6CCN(C(=O)C=C)[C@@H]6[C@@H]5C)cc(OC)nc4c3F)c12 [Example 15, 1-((1R,5R,7S)-6-(7-(8-ethynyl-7-fluoronaphthalen-1-yl)-8-fluoro-2-methoxy-1,6-naphthyridin-4-yl)-7-methyl-2,6-diazabicyclo[3.2.0]heptan-2-yl)prop-2-en-1-one]
The IC50 of the first is 20-fold lower: 73 nM for the first, 1440 nM for the second.

Going from `C=CC(=O)N1CC[C@@H]2[C@H]1CN2c1snc2c(F)c(-c3cccc4ccc(F)c(Cl)c34)ncc12` [Example 17, 1-((1R,5R)-6-(6-(8-chloro-7-fluoronaphthalen-1-yl)-7-fluoroisothiazolo[4,3-c]pyridin-3-yl)-2,6-diazabicyclo[3.2.0]heptan-2-yl)prop-2-en-1-one] to `C=CC(=O)N1CC[C@@H]2[C@H]1CN2c1c(Cl)cnc2c(F)c(-c3cccc4ccc(F)c(Cl)c34)ncc12` [Example 4, 1-((1R,5R)-6-(3-chloro-7-(8-chloro-7-fluoronaphthalen-1-yl)-8-fluoro-1,6-naphthyridin-4-yl)-2,6-diazabicyclo[3.2.0]heptan-2-yl)prop-2-en-1-one], the IC50 falls from 6000 nM to 169 nM (36-fold).

`C#Cc1c(F)ccc2cccc(-c3ncc4c(N5C[C@@H]6[C@H]5CCN6C(=O)C=C)c(C#N)cnc4c3F)c12` [Example 12, 4-((1R,5R)-2-acryloyl-2,6-diazabicyclo[3.2.0]heptan-6-yl)-7-(8-ethynyl-7-fluoronaphthalen-1-yl)-8-fluoro-1,6-naphthyridine-3-carbonitrile] and `C#Cc1c(F)ccc2cccc(-c3ncc4c(N5C[C@@H]6[C@H]5CCN6C(=O)C=C)c(Cl)cnc4c3F)c12` [Example 13, 1-((1R,5R)-6-(3-chloro-7-(8-ethynyl-7-fluoronaphthalen-1-yl)-8-fluoro-1,6-naphthyridin-4-yl)-2,6-diazabicyclo[3.2.0]heptan-2-yl)prop-2-en-1-one] are within 1.5-fold of each other in IC50: 24 nM for the first, 31 nM for the second.

`C=CC(=O)N1CCN(c2c(C#N)cnc3c(F)c(-c4cccc5ccc(F)c(Cl)c45)ncc23)CC1` [Example 10, 4-(4-acryloylpiperazin-1-yl)-7-(8-chloro-7-fluoronaphthalen-1-yl)-8-fluoro-1,6-naphthyridine-3-carbonitrile] and `C=CC(=O)N1CCN(c2c(C)cnc3c(F)c(-c4cccc5ccc(F)c(Cl)c45)ncc23)CC1` [Example 5, 1-(4-(7-(8-chloro-7-fluoronaphthalen-1-yl)-8-fluoro-3-methyl-1,6-naphthyridin-4-yl)piperazin-1-yl)prop-2-en-1-one] are within 1.5-fold of each other in IC50: 3680 nM for the first, 5000 nM for the second.

Compared with `C=CC(=O)N1CCN(c2c(OC)cnc3c(F)c(-c4cccc5ccc(F)c(Cl)c45)ncc23)CC1` [Example 9, 1-(4-(7-(8-chloro-7-fluoronaphthalen-1-yl)-8-fluoro-3-methoxy-1,6-naphthyridin-4-yl)piperazin-1-yl)prop-2-en-1-one], `C=CC(=O)N1CCN(c2ccnc3c(F)c(-c4cccc5ccc(F)c(Cl)c45)ncc23)CC1` [Example 1, 1-(4-(7-(8-chloro-7-fluoronaphthalen-1-yl)-8-fluoro-1,6-naphthyridin-4-yl)piperazin-1-yl)prop-2-en-1-one] is 3.3-fold lower in IC50: 9000 nM for the first, 2740 nM for the second. The second is the more potent here.

Going from `C=CC(=O)N(C)C1CN(c2snc3c(F)c(-c4cccc5ccc(F)c(Cl)c45)ncc23)C1` [Example 21, N-(1-(6-(8-chloro-7-fluoronaphthalen-1-yl)-7-fluoroisothiazolo[4,3-c]pyridin-3-yl)azetidin-3-yl)-N-methylacrylamide] to `C#Cc1cccc2cccc(-c3ncc4c(N5C[C@@H]6[C@H]5CCN6C(=O)C=C)snc4c3F)c12` [Example 19, 1-((1R,5R)-6-(6-(8-ethynylnaphthalen-1-yl)-7-fluoroisothiazolo[4,3-c]pyridin-3-yl)-2,6-diazabicyclo[3.2.0]heptan-2-yl)prop-2-en-1-one], the IC50 falls from 9000 nM to 748 nM (12-fold). The second is the more potent here.

First: C#Cc1cccc2cccc(-c3ncc4c(N5C[C@@H]6[C@H]5CCN6C(=O)C=C)c(Cl)cnc4c3F)c12 [Example 3, 1-((1R,5R)-6-(3-chloro-7-(8-ethynylnaphthalen-1-yl)-8-fluoro-1,6-naphthyridin-4-yl)-2,6-diazabicyclo[3.2.0]heptan-2-yl)prop-2-en-1-one]
Second: C#Cc1cccc2cc(O)cc(-c3ncc4c(N5C[C@@H]6[C@H]5CCN6C(=O)C=C)c(Cl)cnc4c3F)c12 [Example 8, 1-((1R,5R)-6-(3-chloro-7-(8-ethynyl-3-hydroxynaphthalen-1-yl)-8-fluoro-1,6-naphthyridin-4-yl)-2,6-diazabicyclo[3.2.0]heptan-2-yl)prop-2-en-1-one]
The IC50 of the first is 75-fold higher: 75 nM for the first, 1 nM for the second.

Compared with `C#Cc1cccc2cc(O)cc(-c3ncc4c(N5C[C@@H]6[C@H]5CCN6C(=O)C=C)snc4c3F)c12` [Example 18, 1-((1R,5R)-6-(6-(8-ethynyl-3-hydroxynaphthalen-1-yl)-7-fluoroisothiazolo[4,3-c]pyridin-3-yl)-2,6-diazabicyclo[3.2.0]heptan-2-yl)prop-2-en-1-one], `C#Cc1c(F)ccc2cccc(-c3ncc4c(N5C[C@@H]6[C@H]5CCN6C(=O)C=C)c(OC)cnc4c3F)c12` [Example 6, 1-((1R,5R)-6-(7-(8-ethynyl-7-fluoronaphthalen-1-yl)-8-fluoro-3-methoxy-1,6-naphthyridin-4-yl)-2,6-diazabicyclo[3.2.0]heptan-2-yl)prop-2-en-1-one] is 1.6-fold higher in IC50: 14 nM for the first, 22 nM for the second. The first is the more potent here.
